The record followed here is patent US5578575A, “Partially modified and retro-inverted tetrapeptides analogues of C-reactive protein fragments” (Italfarmaco S.P.A., priority 1992, dated 1996).

The test system of experiment [1] is murine splenocytes. The experiment in a line: Stimulation of in vitro IFN-.tau. production by murine splenocytes (ELISA). The experiment is classed as cell-based, BALB/C mice. To be noted: for IFN-.tau. production, Stimulation index / IFN-.tau. production, U/ml: 24 h; for IFN-.tau. production, Stimulation index: with respect to control; for IFN-.tau. production, U/ml: control 31 (Ex. 1, Ex. 2), 41 (Ex. 3). The method, then: Stimulation of in vitro IFN-.tau.production by murine splenocytes The splenic cells were obtained from spleen of BALB/C mice as single cells suspension. The splenocytes thus obtained were resuspended in RPMI 1640 culture medium (Flow Lab., Hertz, UK) containing 5% of fetal calf serum (FCS) (HyClone, ST, Utah, USA) at a final concentrazione of 10^7 cells/ml, and incubated in 96-well plates for 24 hours at 37° C. in the presence of the tested compounds at the indicated concentration. At the end of the incubation the supernatant was collected, filtered by […] filter and freezed to -80° C. until the time of the test carried out by ELISA commercial kit (Genzyme, Boston, Mass., USA).
Background: In an ELISA, binding on a coated surface is turned into a signal by an enzyme label.

In experiment [2] the test system is murine peritoneal cells. The experiment is described as follows: Stimulation of the nitric oxide by murine peritoneal cells (chemiluminescence). The class given is cell-based, BALB/C mice. To be noted: 96 h, with LPS 30 μg/ml; for nitric oxide, Stimulation index: with respect to control; for nitric oxide content: control 20. The protocol: Stimulation of the nitric oxide by murine peritoneal cells The peritoneal cells were obtained as described in the previous test, and incubated for 96 hours at 37° C. in the presence of the compounds in question and of lipopolysaccharide at a concentration of 30 μg/ml. At the end of the treatment the supernatants were collected and the nitric oxide content was determined by the chemiluminescence test described by Palmer R. M. J. et al, Nature, 327, 524, 1987.

Experiment [3] deals with Leishmania major. The experiment is described as follows: Effect on the leishmanicidal activity of murine peritoneal macrophage (3H-thymidine incorporation by living parasites). The experiment is classed as cell-based. The following applies: for cpm (counts per minute), 3H-thymidine incorporation by living parasites: control 18,273. The method, then:
Effect on the leishmanicidal activity of murine peritoneal macrophage The peritoneal cells collected as described above were seeded in 96-well flat bottom plates (Nunc, Roskiled, DK) at a concentration of 10^5 […]; and incubated per 24 hours at 37° C. At the end of the treatment, the cells not adherent to the well were separated and discharged, whereas the adherent cells were washed three time with culture medium and incubated for 24 hours with the compounds in question, then the cells were infected through a 24 hours incubation with promastigotes of Leishmania major (L. major, PVL49 strain supplied by Dr. Neal R. A., London School of Hygiene and Tropical Medicine, London, UK). At the end of the infection treatment each well was added with 100 μl of a 0.01% solution od sodium dodecylsulphate in RPMI 1640, and the plates were incubated for 30 minutes at 37° C. The Schneider's culture medium (Schneider Drosophila medium, Gibco Lab., Grand Island, N.Y., USA) with 30% of FCS was added. Each well was added with 1 μCi of ^3 H-thymidine, and a 72 hours incubation was carried out at 37° C. The incorporation of radioactivity by the living parasites inside the peritoneal cells, which is correlated to the infection degree and consequently to the leishmanicidal activity of the cells, was measured by collecting the cells by means of a cell-harvester and measuring the radioactivity with liquid scintillation β-counter.

The subject of experiment [4] is BALB/C mice. The experiment is described as follows: In vivo protection against septic shock (LPS-inoculated mice, survival). To be noted: LPS 50 mg/kg i.p., compound at time 0 or 30 minutes after LPS, checked for 8 days. The protocol:
Evaluation of the in vivo protection against septic shock
BALB/C mice (6 mice/group) weighting between 20 and 25 g, were intraperitoneally inoculated with 50 mg/kg of LPS (lipopolysaccharide-Sigma). The groups, except for the control, were inoculated with increasing doses of one of the compounds of the invention dissolved in physiologic solution having a final volume of 0.5 ml, at time 0 (i.e. together with LPS) or 30 minutes after the LPS inoculation. The mice were checked for 8 days to determined the survival percentage. Compound of Example 1 yields a survival percentage of about 65% at doses of 6.2 ug/mouse and 0.62 ug/mouse, and its isomer B yields a survival percentage of about 80% at a dose of 6.25 ug/mouse and of 75% at a dose of 62.5 ug/mouse.

For experiment [5], the system named is murine peritoneal macrophages. The experiment in a line: Stimulation of IL-1 production by murine peritoneal macrophages (ELISA). The class given is cell-based, BALB/C mice. The following applies: 96 h; for IL-1 production, Stimulation index: with respect to control; for IL-1 production, U/ml: control 15. The text has this: Stimulation of IL-1 production by murine peritoneal macrophages Murine peritoneal macrophages were obtained by inoculation of a solution of hydrolized starch (BDH Chemicals, Poole, Dorset, UK) into the peritoneal cavity of BALB/C mice, three days before sacrificing the animals. The peritoneal cells were then collected by washing the peritoneal cavity with a solution of RPMI 1640 containing 10% of FCS, and resuspended in the same solution at a concetration of 10^6 cells/ml in 96-well plates. The incubation was performed for 96 hours at 37° C. in the presence of the compounds in question. At the end of the treatment the supernatants were collected and used for dosing cytokine by means of a suitable ELISA commerical kit (Genzyme, Boston, Mass., USA).

On to `N=C(N)NCCC[C@H](NC(=O)[C@@H]1CCCN1C(=O)C(CCCCN)C(=O)NCN)C(=O)O` (single isomer, unassigned) [Example 1], for which the “IFN-.tau. production, Stimulation index” value was found to be 1.1 in experiment [1] (0.1 μg/ml), 1.9 in experiment [1] (1.0 μg/ml) and 1.6 in experiment [1] (10.0 μg/ml). Besides, the entries for the “IFN-.tau. production, U/ml” value in experiment [1] (0.1 μg/ml), in experiment [1] (1.0 μg/ml) and in experiment [1] (10.0 μg/ml) were 33 U/ml, 60 U/ml and 49 U/ml, respectively. Also, the “IFN-.tau. production, change in words” value in experiment [1] (1.0 μg/ml) is recorded as “doubled”. Also, the “nitric oxide, Stimulation index” value in experiment [2] (0.01 μg/ml) amounted to 2.2; in experiment [2] (0.1 μg/ml) it was 3.0; in experiment [2] (1.0 μg/ml), 3.9; in experiment [2] (10.0 μg/ml), 2.9. Also, the “nitric oxide content” value in experiment [2] (0.01 μg/ml) stood at 43 nmol/mL; in experiment [2] (0.1 μg/ml), 59 nmol/mL; in experiment [2] (1.0 μg/ml), 77 nmol/mL; in experiment [2] (10.0 μg/ml) it was 57 nmol/mL. The “% reduction of infection” value in experiment [3] (0.1 μg/ml (minimum dose used)) is recorded as “over 70%”; in experiment [3] (0.1 μg/ml (minimum dose used), listed as Es. 1) it was 72%; in experiment [3] (1.0 μg/ml), 79%; in experiment [3] (10.0 μg/ml) it was 77%. The figures for the “cpm (counts per minute), 3H-thymidine incorporation by living parasites” value in experiment [3] (0.1 μg/ml), in experiment [3] (1.0 μg/ml) and in experiment [3] (10.0 μg/ml) were 5,096 cpm, 3,783 cpm and 4,292 cpm, respectively. For the same compound, the survival percentage result in experiment [4] (0.62 ug/mouse) and in experiment [4] (6.2 ug/mouse) was “about 65%” in each case. For the same compound, the “IL-1 production, Stimulation index” value in experiment [5] (0.01 μg/ml) is reported as 0.4; in experiment [5] (0.1 μg/ml), 0.1; in experiment [5] (1.0 μg/ml) it was 0.1; in experiment [5] (10.0 μg/ml) it was 0,1. For the same compound, the “IL-1 production, U/ml” value in experiment [5] (0.01 μg/ml) amounted to 6 U/ml; in experiment [5] (0.1 μg/ml), 2 U/ml; in experiment [5] (1.0 μg/ml) it was 2 U/ml; in experiment [5] (10.0 μg/ml), 2 U/ml.

For the compound `N=C(N)NCCC[C@H](NC(=O)[C@@H]1CCCN1C(=O)C(CCCCN)C(=O)NCN)C(=O)O` (single isomer, unassigned) [ITF 1358], the survival percentage entry is “about 80%” in experiment [4] (6.25 ug/mouse) and 75% in experiment [4] (62.5 ug/mouse).
